{"source": "patent USRE41226E1", "about": "“Compounds having reversible inhibiting activity of carnitine palmitoyl-transferase” (Sigma-Tau Industrie Farmaceutiche Riunite S.p.A., priority 1998, dated 2010)", "key": {"CPTI": {"molecular_target": "T1, CPTI (Rattus norvegicus, UniProt P32198)", "T1 construct": "Mitochondria were isolated from liver or heart and suspended in 75 mM saccharose buffer; from tissue; host or cells: liver mitochondria of normally fed Fischer rats", "T1 sequence (P32198 1-773)": "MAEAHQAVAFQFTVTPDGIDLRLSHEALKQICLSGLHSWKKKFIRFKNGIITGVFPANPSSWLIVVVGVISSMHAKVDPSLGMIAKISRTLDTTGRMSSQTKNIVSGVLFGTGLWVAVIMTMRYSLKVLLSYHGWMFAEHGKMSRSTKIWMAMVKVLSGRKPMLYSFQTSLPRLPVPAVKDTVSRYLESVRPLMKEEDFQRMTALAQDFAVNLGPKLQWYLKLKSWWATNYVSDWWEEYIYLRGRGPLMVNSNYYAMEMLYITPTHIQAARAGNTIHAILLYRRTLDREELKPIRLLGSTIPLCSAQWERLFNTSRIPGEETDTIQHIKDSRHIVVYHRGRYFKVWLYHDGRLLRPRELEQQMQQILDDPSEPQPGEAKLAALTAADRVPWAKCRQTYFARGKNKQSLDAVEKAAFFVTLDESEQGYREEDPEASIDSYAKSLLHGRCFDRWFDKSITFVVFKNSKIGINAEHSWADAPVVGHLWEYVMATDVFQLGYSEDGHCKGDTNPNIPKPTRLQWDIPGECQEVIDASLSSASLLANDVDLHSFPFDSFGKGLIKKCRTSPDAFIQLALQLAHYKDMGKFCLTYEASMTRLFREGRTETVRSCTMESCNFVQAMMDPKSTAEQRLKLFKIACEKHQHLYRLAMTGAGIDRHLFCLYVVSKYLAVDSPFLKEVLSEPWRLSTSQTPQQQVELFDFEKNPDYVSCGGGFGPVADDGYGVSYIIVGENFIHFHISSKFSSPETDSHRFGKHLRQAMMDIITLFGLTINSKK", "test": "Determination of CPT inhibiting activity in rat liver mitochondria", "assay_type": "biochemical, Fischer rat", "settings": "50 μM [14C] palmitoyl-CoA, 10 mM L-carnitine, 37° C., 1 minute, read-out: IC50 of inhibition CPTI curve in rat liver mitochondria", "experimental": "CPT inhibition was evaluated essentially as described in Kerner, J. & Bieber, L. L. (1990) Biochemistry 29: 4326-34 on fresh mitochrondrial preparation obtained from normally fed Fischer rat liver or heart. Mitochondria were isolated from liver or heart and suspended in 75 mM saccharose buffer, 1 mM EGTA, pH 7.5. 100 μl mitochrondrial suspension, containing 50 μM [^14C] palmitoyl-CoA (specific activity […]) and 10 mM L-carnitine, were incubated at 37° C., in the presence of scalar concentrations of the test product (0-3 mM). Reaction time: 1 minute."}, "[1]": {"test_system": "β-hydroxybutyrate production in rat hepatocytes", "test": "Oleate-stimulated β-hydroxybutyrate production in rat hepatocytes", "assay_type": "cell-based", "settings": "40 min incubation, then oleate 1 mM for 20 min, mean of three experiments, read-out: IC50 of inhibition CPTI curve of β-hydroxybutyrate production in rat hepatocytes", "experimental": "β-hydroxybutyrate production is an index of CPT activity. In fact, the production of ketone bodies, final products of mitochrondrial β-oxidation, is related to CPT activity.\nMitocondrial preparations, obtained according to the method by Venerando et al. (Am. J. Physiol. 266:C455-C461, 1994), were used. Hepatocytes are incubated at 37° C. in KRB bicarbonate buffer at pH 7.4, 6 mM glucose, 1% BSA in O2/CO2 95/5 atmosphere at 2.5×10^6 cells/ml. After 40 min incubation with the test compound at different concentrations, the first set of samples was taken (T0 min) and oleate was added (1 mM final in KRB+BSA 1.4%). After 20 minutes, the second withdrawal was made (T20 min)\nThe data are the mean of three different experiments, twice carried out."}, "24 hours-starved rats": {"test_system": "24 hours-starved rats", "test": "Glucose and β-hydroxybutyrate in serum of fasted rats treated with CPT inhibitors", "assay_type": "in vivo, Fischer rats", "settings": "one hour after intraperitoneal treatment, ST1326 14.5 mg/2 ml/kg, others equivalent dose", "experimental": "Normally fed Fischer rats were starved for 24 hours and subsequently treated with the test compounds. One hour after the treatment, the animals were sacrificed and serum concentrations of glucose and β-hydroxybutyrate were determined.\nFor the compound ST1326 were used doses of 14.5 mg/2 ml/kg, for other test compounds, the doses are equivalent to ST1326 one."}, "fed with high-fat diet": {"test_system": "fed with high-fat diet", "test": "Glucose and insulin levels in diabetic animals (high-fat diet) treated with CPT inhibitors", "assay_type": "in vivo, C57BL/6J male rats", "settings": "45 mg/Kg p.o. twice a day, after 20 days of treatment", "experimental": "C57BL/6J male […], 5-weeks old, were provided by Ch. River. After 10 days of acclimatisation in standard conditions (22±2° C.; 55±15% humidity; 15-20/h air changes; 12 hours light-dark cycle, with 700-1900 lux) and with standard diet with 4RF21 feedstock (Mucedola), glycaemia was controlled in post-absorption state (starving from 8.30 a.m. to 4.30 p.m.). Blood withdrawal was carried out cutting the tail end. Glucose was analyzed in blood acid supernatant (HCLO4 0,375 N) with autoanalyzer Cobas Mira S with Glucose GDH Kit (Roche).\nThe animals were divided in two groups, 26 mice each and fed with a high-fat and a low-fat diet, respectively.\nAfter 2 months from the start of the diet, glycaemia was tested, according to the starrting method. After about 3 months from the start of the diet, glycaemia was tested, according to the starting method and plasma insulin levels were also determined (with blood withdrawal from end tail cutting) using [125I] Rat Insulin Kit (Amersham).\nOne 10 mice group fed with low-fat diet and two 10-mice groups fed with the high-fat diet were selected. One of the two high fat diet was administered with ST 1327 at the dose of 45 mg/Kg in deionised H2O (p.o., twice a day, 8.30 a.m. and 5.30 p.m.).administration volume was 10 ml/Kg, the two remaining groups were treated with vehicle only. High-fat or low-fat diets were continued during the treatment.\nAfter 20 days of treatment, glycaemia and plasma insulin were measured. After 43 days of treatment, the animals were sacrificed by decapitation in post-absorption state (fasting 8.30 a.m.-4.30 p.m.), 8 hours after the last treatment. Blood was withdrawn and serum was separated by centrifugation and stored at −80° C. Liver, heart and skeletal muscle (upper limbs) were also extracted, frozen in dry ice-acetone and kept at −80° C."}, "[2]": {"test_system": "hearts perfused according to Langendorff technique", "test": "Myocardial ischemia: LDH release from Langendorff-perfused rat hearts (ischemia/reperfusion)", "design": "species or system male Wistar rats", "experimental": "To this end, male Wistar rats, weighing 200-225 g, provided by Charles-River, were kept at constant temperature of 23°+/−1° C., 50+/−10% relative humidity, 12 hours light-dark cycle, fed with pellet 4RF21 (Mucedola) tap water ad libitum.\nThe amimals were anaesthetised with sodium Pentobarbital at the dose of 70 mg/Kg i.p.. Hearts were rapidly removed and put in a cold Krebs-Henseleit solution, before incannulation of aorta e subsequent perfusion according to Langendorff technique at 37° C. with a pressure of 100 cm water.\nPerfusion medium (Krebs-Henseleit) at pH 7.4 consists in: 128 mM NaCl, 4.7 mM KCl, 1 mM MgCl2, 0.4 mM Na2HP04, 20.2 mM NaHCO3, 1.3 mM CaCl2, 5 mM glucose. The medium was constantly oxygenated with carbogen (95% O2, 5% CO2).\nAfter a 10 min “conditioning” period, hearts were perfused in a recirculant apparatus for 20 min. with the same medium containing 0.6 mM palmitate complexed with albumine (fraction V, fatty acid free), with or without the CPT inhibitor according to the present invention. By way of example ST 1364 was used at concentrations of 1 and 5 μM. After such a period ischemia was induced by reducing perfusion hydrostatic pressure from 100 cm to 20 cm for a period of 30 min. Reperfusion was started re-establishing the starting pressure conditions (100 cm).Hearts were controlled for 20 min. the inhibitor is present also during reperfusion phase.\nLactate dehydrogenases (LDH) release was monitored in the effluent in normal oxygenation conditions, during ischemia, with a withdrawal of medium at 30′, and during reperfusion, with withdrawals at 1.5, 10, 15 and 20 minutes.\nStatistical analysis was carried out with Student's “t” test for non-paired data.\nThe number of the cases for each group is six (n=6)."}}}
{"molecule": "CCCCCCCCCCCCCCOP(=O)([O-])O[C@H](CC(=O)O)C[N+](C)(C)C", "note": "[SDZ-CPI-975, reference compound]", "values": [{"measurement": "IC50", "setting": "CPTI", "value": 17400, "unit": "nM"}, {"measurement": "IC50", "setting": "[1]", "value": 3700, "unit": "nM"}, {"measurement": "Glu (glucose) serum concentration, Mean", "setting": "24 hours-starved rats", "value": 87.6}, {"measurement": "β-OHB serum concentration, Mean", "setting": "24 hours-starved rats", "value": 119.9}]}
{"molecule": "CCCCCCCCCNC(=O)NC(CC(=O)[O-])C[N+](C)(C)C", "note": "(centres unmarked) [ST1251, R,S-4-trimethylammonium-3-(nonylcarbamoyl)aminobutyrate]", "values": [{"measurement": "IC50", "setting": "[1]", "value": 500, "unit": "nM"}, {"measurement": "Glu (glucose) serum concentration, Mean", "setting": "24 hours-starved rats", "value": 76.9}, {"measurement": "β-OHB serum concentration, Mean", "setting": "24 hours-starved rats", "value": 99.8}]}
{"molecule": "CCCCCCCCOC(=O)NC(CC(=O)O)C[N+](C)(C)C.[Cl-]", "note": "(centres unmarked) [ST1253, R,S-4-trimethylammonium-3-(octyloxycarbonyl)-aminobutyrate chloride]", "values": [{"measurement": "IC50", "setting": "[1]", "value": 900, "unit": "nM"}, {"measurement": "Glu (glucose) serum concentration, Mean", "setting": "24 hours-starved rats", "value": 88.2}, {"measurement": "β-OHB serum concentration, Mean", "setting": "24 hours-starved rats", "value": 118.8}]}
{"molecule": "CCCCCCCCCOC(=O)NC(CC(=O)[O-])C[N+](C)(C)C", "note": "(centres unmarked) [ST1285, R,S-4-trimethylammonium-3-(nonyloxycarbonyl)-aminobutyrate]", "values": [{"measurement": "IC50", "setting": "[1]", "value": 1900, "unit": "nM"}]}
{"molecule": "CCCCCCCCCCCCCCNC(=O)N[C@H](CC(=O)[O-])C[N+](C)(C)C", "note": "[ST1326, R-4-trimethylammonium-3-(tetradecylcarbamoyl)amino butyrate]", "values": [{"measurement": "IC50", "setting": "CPTI", "value": 750, "unit": "nM"}, {"measurement": "Glu (glucose) serum concentration, Mean", "setting": "24 hours-starved rats", "value": 84.2}, {"measurement": "β-OHB serum concentration, Mean", "setting": "24 hours-starved rats", "value": 133.1}]}
{"molecule": "CCCCCCCCCCCNC(=O)N[C@H](CC(=O)[O-])C[N+](C)(C)C", "note": "[ST1327, R-4-trimethylammonium-3-(undecylcarbamoyl)-aminobutyrate]", "values": [{"measurement": "Glucose", "setting": "fed with high-fat diet; High Fat diet Treated, p<0.001 against high fat diet", "value": "181.4 ± 9.63", "unit": "mg/dL"}, {"measurement": "Insulin", "setting": "fed with high-fat diet; High Fat diet Treated, p<0.01 against high fat diet", "value": "0.621 ± 0.117", "unit": "ng/mL"}, {"measurement": "glucose levels (in words)", "setting": "fed with high-fat diet; high-fat diet", "value": "significantly decreased"}, {"measurement": "insulin levels (in words)", "setting": "fed with high-fat diet; high-fat diet", "value": "significantly decreased"}, {"measurement": "IC50", "setting": "CPTI", "value": 3200, "unit": "nM"}, {"measurement": "Glu (glucose) serum concentration, Mean", "setting": "24 hours-starved rats", "value": 84.9}, {"measurement": "β-OHB serum concentration, Mean", "setting": "24 hours-starved rats", "value": 93.0}]}
{"molecule": "CCCCCCCNC(=O)N[C@H](CC(=O)[O-])C[N+](C)(C)C", "note": "[ST1328, R-4-trimethylammonium-3-(heptylcarbamoyl)-aminobutyrate]", "values": [{"measurement": "Glu (glucose) serum concentration, Mean", "setting": "24 hours-starved rats", "value": 79.5}, {"measurement": "β-OHB serum concentration, Mean", "setting": "24 hours-starved rats", "value": 169.2}]}
{"molecule": "CCCCCCCCCCS(=O)(=O)NC(CC(=O)[O-])C[N+](C)(C)C", "note": "(centres unmarked) [ST1364, R,S-4-trimethylammonium-3-(decansulfonyl)aminobutyrate]", "values": [{"measurement": "LDH release in perfusate", "setting": "[2]; 1 μM, Basal", "value": 275, "unit": "mU/ml/min"}, {"measurement": "LDH release in perfusate", "setting": "[2]; 1 μM, Ischemia 30′", "value": 220, "unit": "mU/ml/min"}, {"measurement": "LDH release in perfusate", "setting": "[2]; 1 μM, Reperfusion 1′", "value": 480, "unit": "mU/ml/min"}, {"measurement": "LDH release in perfusate", "setting": "[2]; 1 μM, Reperfusion 5′", "value": 500, "unit": "mU/ml/min"}, {"measurement": "LDH release in perfusate", "setting": "[2]; 1 μM, Reperfusion 10′", "value": 495, "unit": "mU/ml/min"}, {"measurement": "LDH release in perfusate", "setting": "[2]; 1 μM, Reperfusion 15′", "value": 510, "unit": "mU/ml/min"}, {"measurement": "LDH release in perfusate", "setting": "[2]; 1 μM, Reperfusion 20′", "value": 580, "unit": "mU/ml/min"}, {"measurement": "LDH release in perfusate", "setting": "[2]; 5 μM, Basal", "value": 220, "unit": "mU/ml/min"}, {"measurement": "LDH release in perfusate", "setting": "[2]; 5 μM, Ischemia 30′", "value": 200, "unit": "mU/ml/min"}, {"measurement": "LDH release in perfusate", "setting": "[2]; 5 μM, Reperfusion 1′", "value": 410, "unit": "mU/ml/min"}, {"measurement": "LDH release in perfusate", "setting": "[2]; 5 μM, Reperfusion 5′", "value": 380, "unit": "mU/ml/min"}, {"measurement": "LDH release in perfusate", "setting": "[2]; 5 μM, Reperfusion 10′", "value": 380, "unit": "mU/ml/min"}, {"measurement": "LDH release in perfusate", "setting": "[2]; 5 μM, Reperfusion 15′", "value": 320, "unit": "mU/ml/min"}, {"measurement": "LDH release in perfusate", "setting": "[2]; 5 μM, Reperfusion 20′", "value": 325, "unit": "mU/ml/min"}, {"measurement": "LDH release in the effluent during reperfusion (in words)", "setting": "[2]; 5 μM, with respect to the controls", "value": "significantly reduced"}]}
